Data as given in publication PMC3606385 (PLoS ONE, 2013).
“And” between values parts separate entries of the source, which are not always exact repeats. Identical values can stand only once.

Key:
Rat 11β-HSD1 [1] = target: T1, Rat 11β-HSD1 (Rattus norvegicus, UniProt P16232); assay: 11β-HSD1 assay in adult rat testis microsomes; type: biochemical
T1 construct: endogenous in cells; host or cells: primary adult Sprague-Dawley rat Leydig cells
Description: Rats were euthanized by CO2, and livers, testes and kidneys were collected. Rat liver, testis and kidney microsomes were prepared as described previously. In brief, rat liver and kidney were homogenized in […] PBS buffer containing 0.25 M sucrose, and nuclei and large cell debris were removed by centrifugation at 1500× g for 10 min. The post-nuclear supernatants were centrifuged twice at 105,000×g, the resultant microsomal pellets were resuspended. Protein contents were measured by Bio-Rad Dye Reagent Concentrate (Cat.#500-0006). Microsomes were used for measurement of 11β-HSD1 and 11β-HSD2 activities.
(§1) The rat testis and liver or human liver microsomes were used for 11β-HSD1 assay. 11β-HSD1 activity was performed in the microsome according to a previously described method. […] 2 µg microsomes were added to each tube to initiate the reaction and the reaction mixture was incubated for up to 2 hrs, during which the reaction is within the linear range. The rest procedure was similar to 11β-HSD1 assay in intact cells.
(§2) The IC50 was determined by adding different concentrations of each compound in the 11β-HSD1 or 11β-HSD2 reaction as described. The mode of inhibition was assayed by adding various concentrations of steroid substrates in the presence of an inhibitor as described.

Human 11β-HSD1 = target: T2, Human 11β-HSD1 (Homo sapiens, UniProt P28845); assay: 11β-HSD1 assay in microsomes from CHOP cells transfected with human HSD11B1; type: biochemical
T2 construct: expressed in transfected cells; host or cells: CHOP cells (transient, FuGENE)
Description: An expression plasmid was constructed to express human 11β-HSD1 (HSD11B1) cDNA in pcDNA I expression vector from its original human HSD11B1 vector (pBluescriptSK+).[15]. The Escherichia coli transformants carrying an insert were selected by colony hybridization, and a clone with the insert in the correct orientation relative to the vector T7 promoter was identified by restriction mapping. All transfections were carried out on 80% confluent cultures in 12-well plates. Aliquots of 1 µg HSD11B1 pcDNA I were transfected into mammalian CHOP cells with the FuGENE Transfection Reagent (Roche) according to manufacturer's protocol. Cells were allowed to grow for 24 hours in media containing 10% fetal bovine serum. Then media were removed and cells were harvested for 11β-HSD1 activity assay.
as §1, §2

db/db mice = conditions: cited from earlier work
rats = conditions: cited from earlier work
human liver 11β-HSD1 = target: T3, human liver 11β-HSD1 (Homo sapiens, UniProt P28845); assay: Mode of inhibition, human liver 11β-HSD1; type: biochemical; conditions: data not shown
T3 construct: tissue Gentest (Woburn, MA); host or cells: human liver microsomes
Description: The rat testis and liver or human liver microsomes were used for 11β-HSD1 assay. 11β-HSD1 activity was performed in the microsome according to a previously described method. In brief, the assay tubes contained 25 nM substrate 11DHC (for rat) or cortisone (for human), spiked with 30,000 cpm their respective ^3H-11keto-steroid, 0.2 mM NADPH and 5 mM glucose-6-phosphaare in the PBS buffer. 2 µg microsomes were added to each tube to initiate the reaction and the reaction mixture was incubated for up to 2 hrs, during which the reaction is within the linear range. The rest procedure was similar to 11β-HSD1 assay in intact cells.
as §2
Enzyme data were subjected to nonlinear analysis by GraphPad (Version 5, GraphPad Software Inc., San Diego, CA) for IC50. Lineweaver-Burk plot was used for the mode of inhibition. Data were subjected to analysis by one-way ANOVA followed by Tukey's multiple comparisons testing to identify significant differences between groups when three were calculated. Differences were regarded as significant at P<0.05.

diabetic rats = conditions: normal or high fat diet; cited from earlier work
Rat 11β-HSD1 [2] = target: T1, Rat 11β-HSD1; assay: 11β-HSD1 assay in intact rat Leydig cells; type: cell-based
Description: Rat Leydig cells contain the highest 11β-HSD1 activity in all cell types of rat tissues, and were used for rat 11β-HSD1 enzyme sources. Purified rat Leydig cells were obtained from 90-day-old Sprague-Dawley rats by collagenase digestion of the testes followed by Percoll density centrifugation of the cell suspension, according to the previously described method. […] The purity of cell fractions was evaluated by histochemical staining for 3β-hydroxysteroid dehydrogenase activity with […] etiocholanolone as the steroid substrate.
11β-HSD1 reductase activity was performed in intact cells using endogenous cofactor NADPH as described previously. […] 25×10^3 cells were added to each tube to initiate the reaction and the reaction mixture was incubated for up to 2 hrs, during which the reaction is within the linear range. At the end of reaction, the reaction was stopped by adding 2 ml ice-cold ether. The steroids were extracted, and the organic layer was dried under nitrogen. The steroids were separated chromatographically on thin layer plates in chloroform and methanol (90∶10, v/v), and the radioactivity was measured using a scanning radiometer (System AR2000, Bioscan Inc., Washington, DC) as described previously. The percentage conversion of 11DHC to CORT or cortisone to cortisol was calculated by dividing the radioactive counts identified as 11-OH-steroids by the total counts.
as §2

T1 sequence (P16232 whole entry): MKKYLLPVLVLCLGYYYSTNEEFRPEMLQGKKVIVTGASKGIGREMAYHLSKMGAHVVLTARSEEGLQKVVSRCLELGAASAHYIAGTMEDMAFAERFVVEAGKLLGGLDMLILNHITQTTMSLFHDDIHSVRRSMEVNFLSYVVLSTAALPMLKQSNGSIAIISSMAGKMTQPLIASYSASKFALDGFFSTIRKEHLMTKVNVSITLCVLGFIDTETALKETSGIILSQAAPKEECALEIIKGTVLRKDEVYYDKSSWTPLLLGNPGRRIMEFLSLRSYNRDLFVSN
T2 sequence (P28845 whole entry): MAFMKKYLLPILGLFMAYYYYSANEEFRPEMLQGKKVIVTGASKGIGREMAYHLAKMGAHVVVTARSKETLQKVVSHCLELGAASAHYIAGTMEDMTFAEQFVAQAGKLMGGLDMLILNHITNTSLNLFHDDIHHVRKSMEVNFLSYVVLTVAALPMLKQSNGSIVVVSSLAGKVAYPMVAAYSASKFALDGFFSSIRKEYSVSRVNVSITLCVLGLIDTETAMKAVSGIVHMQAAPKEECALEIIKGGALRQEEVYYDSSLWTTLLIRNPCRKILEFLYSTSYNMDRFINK
T3 sequence (P28845 whole entry): as above

COc1cc(/C=C/C(=O)CC(=O)/C=C/c2ccc(O)c(OC)c2)ccc1O [1 (Curcumin), Curcumin]
IC50 (Rat 11β-HSD1 [1]): 4.18 ± 0.24 µM | IC50 (Human 11β-HSD1): 10.6 ± 7.17 µM | Effect on body weights (db/db mice): lowered | Effect on insulin resistance (db/db mice): corrected | Effect on serum glucose levels (db/db mice): significantly reduced | Effect on serum and liver cholesterol levels (rats): lowered | Mode of inhibition of human 11β-HSD1 (human liver 11β-HSD1): competitive inhibitor | Effect on serum Tg (diabetic rats): remarkably reduced | Effect on serum cholesterol (diabetic rats): remarkably reduced | IC50 (Rat 11β-HSD1 [2]; intact adult rat Leydig cells, read-out: IC50 rat 11β-HSD1 in intact cells): 5790 nM and 2290 nM and 2000 to 6000 nM | IC50 (Rat 11β-HSD1 [2]; intact rat Leydig cells, read-out: Rat 11β-HSD1 IC50 (nM) in Leydig cells): 5790 nM
